Literature values in patent US20180333352A1, “TOPICAL FORMULATIONS AND USES THEREOF” (SUN PHARMA GLOBAL FZE, priority 2015, published 2018).

Tests used:
[1] = system: IFNγ, TNFα, IL-2; conditions: in vitro
[2] = system: T-cell adhesion to ICAM-1 expressing cells; conditions: in vitro

Row | Solubility in ethyl alcohol and methyl alcohol (ethyl alcohol, methyl alcohol) | Solubility in water (water) | Structure (SMILES) | Secretion of key inflammatory cytokines (IFNγ, TNFα, IL-2) [1] | T-cell adhesion to ICAM-1 expressing cells [2]
1 |  |  | CS(=O)(=O)c1cccc(C[C@H](NC(=O)c2c(Cl)cc3c(c2Cl)CCN(C(=O)c2ccc4ccoc4c2)C3)C(=O)O)c1 [lifitegrast] | inhibits | inhibits
2 | very soluble | only slightly soluble | CCNC(=O)CCC/C=C\C[C@@H]1[C@@H](/C=C/[C@@H](O)CCc2ccccc2)[C@H](O)C[C@@H]1O [Bimatoprost, (Z)-7-[(1R,2R,3R,5 S)-3,5-Dihydroxy-2 [(1E,3S)-3-hydroxy-5-phenyl-1-pentenyl]cyclopentyl]-5-N-ethylheptenamide] |  | 
